Read-outs that look alike come from different tables or passages of the source.
Experiments:
[1] = test system: human ovarian carcinoma cells (1A9); test: Antiproliferative assay (GI50, MTS); type: cell-based; conditions: for antiproliferative potency / GI50 values (in words): Table 1 (1A9 and mutant lines)
Experimental: (§1) Representative analogs were examined for their antiproliferative activities against human ovarian carcinoma 1A9 cells and their paclitaxel-resistant mutants, 1A9/Ptx10 and 1A9/Ptx22.
[…] Cells were maintained in RPMI medium with 10% FBS in it, plated in tissue culture plates, and allowed to grow for 48-72 h before transferring them into 96-well plates. Cells were allowed to attach and grow for 48 h in 96-well plates after which they were treated with either control (DMSO) or drug in triplicate/quadruplicate. Cells were incubated with the compounds for 72 h. Cells were treated with MTS reagent before reading the plate in a Dynamax plate reader for determining the cell number. The fifty percent growth inhibition values (GI50 values) were calculated for the compounds against all the three cell lines.

[2] = test system: 1A9/Ptx10 (Phe270 −> Val) β-tubulin mutant cells; test: Antiproliferative assay (GI50, MTS), paclitaxel-resistant clone; type: cell-based, human; conditions: for fold-resistance: 1A9/Ptx10 versus parental 1A9
Experimental: as §1
(§2) The effects of dictyostatin and its analogs on growth inhibition of parental ([…]) and paclitaxel-resistant (1A9/Ptx10 and Ptx22) ovarian adenocarcinoma cell lines were evaluated following the antiproliferative assay protocol as described earlier (Minguez et al., 2003; Choy et al., 2003; Lazo et al., 2001). Cells were maintained in RPMI medium with 10% FBS in it, plated in tissue culture plates, and allowed to grow for 48-72 h before transferring them into 96-well plates. Cells were allowed to attach and grow for 48 h in 96-well plates after which they were treated with either control (DMSO) or drug in triplicate/quadruplicate. Cells were incubated with the compounds for 72 h. Cells were treated with MTS reagent before reading the plate in a Dynamax plate reader for determining the cell number. The fifty percent growth inhibition values (GI50 values) were calculated for the compounds against all the three cell lines.

[3] = test system: 1A9/Ptx22 (Ala364 −> Thr) β-tubulin mutant cells; test: as above; type: cell-based, human; conditions: for fold-resistance: 1A9/Ptx22 versus parental 1A9
Experimental: as §1, §2

Bovine brain tubulin = test system: T1, Bovine brain tubulin; test: Pelleting assay (tubulin assembly EC50 determination); type: biochemical; conditions: for % Tubulin polymerized by 50 μM test agent / EC50: tubulin 10 μM in 0.2 M MSG, 15 min at 20° C.; for EC50: concentration required to polymerize 50% of tubulin, read-out: EC50 (μM) ± SD (N)
T1 construct: Bovine brain tubulin (10 μM) in 0.2 M MSG, 15 min at 20° C
Experimental: Dictyostatin and representative analogs were evaluated in a quantitative assay for their ability to promote tubulin polymerization. […] When the percent polymer formed was determined in the reactions, a comparison of the activities of all the analogs could be made.
The assay was performed under three different reaction conditions following the procedure reported earlier (Gapud et al., 2004). Reaction condition 1 included 0.2 M monosodium glutamate (MSG), 10 μM tubulin, 5% DMSO and varying concentrations of test agents. Reaction condition 2 included 0.8 M MSG, 400 μM GTP, 10 μM tubulin, 5% DMSO, and varying concentrations of test agents. Reaction condition 3 had 0.6 M MSG, 200 μM GTP, and 10 μM tubulin, and 5% DMSO, and varying concentrations of the test agents. The experimental protocol for all the three reaction conditions was the following. The reaction mixtures were incubated at room temperature (20-22° C.) for 15 min and spun for 10 min at 14,000 rpm in an Eppendorf microtube centrifuge. Aliquots of the supernatants were removed and assayed for protein content by the method of Lowry.

[4] = Homo sapiens, Ovarian carcinoma cell, 72 h, read-out: GI50 ± S.D., 1A9 parental cells, 72 h incubation
[5] = Homo sapiens, 1A9/ptx-10, 72 h, read-out: GI50 ± S.D., 1A9/Ptx10 (Phe270 −> Val), 72 h incubation
[6] = Homo sapiens, 1A9/ptx-22, 72 h, read-out: GI50 ± S.D., 1A9/Ptx22 (Ala364 −> Thr), 72 h incubation

Compound | GI50 [1, 4] [nM] | antiproliferative potency / GI50 values (in words) [1] | fold-resistance [2] [fold] | GI50 [2, 5] [nM] | fold-resistance [3] [fold] | GI50 [3, 6] [nM] | percent polymer formed (in words) (Bovine brain tubulin) | % Tubulin polymerized by 50 μM test agent (Bovine brain tubulin) [%] | EC50 (Bovine brain tubulin) [µM] | GI50 ([1]; read-out: GI50 ± S.D., 1A9 parental cells, 72 h incubation) [nM] | GI50 ([2]; read-out: GI50 ± S.D., 1A9/Ptx10 (Phe270 −> Val), 72 h incubation) [nM] | GI50 ([3]; read-out: GI50 ± S.D., 1A9/Ptx22 (Ala364 −> Thr), 72 h incubation) [nM]
C=C/C=C\[C@H](C)[C@H](O)[C@@H](C)[C@H](O)CC[C@H](C)C[C@H](C)[C@@H](O)[C@@H](C)/C=C\[C@@H](O)C[C@H](O)[C@H](C)/C=C/C=C\C(=O)OC [Compound 50, (2Z,4E,6R,7S,9S,10Z,12S,13R,14S,16S,19R,20S,21S,22S,23Z)-Methyl-7,9,13,19,21-penta-hydroxy-6,12,14,16,20,22-hexamethylhexacosa-2,4,10,23,25-pentaenoate] | 56 ± 16 | mid-nanomolar range | 1.4 | 79 ± 13 | 1.5 | 85 ± 2 | moderate activity | 39 ± 7 | > 50 | – | – | –
C=CC=CC(C)C1OC(=O)C=CC=CC(C)C(O)CC(O)C=CC(C)C(O)C(C)CC(C)CCC(O)C1C [Compound 59, (8S,10S,14R,20S)-Tetrahydroxy-(7R,13S,15S,17S,21s)-pentamethyl-(22S)-((1S)-methylpenta-2,4-dienyl)-oxacyclodocosa-3,5,11-trien-2-one] | – | mid-nanomolar range | 5.7 | – | 2.0 | – | moderate activity | 30 ± 2 | > 50 | 21 ± 14 | 120 ± 60 | 43 ± 12
C=CC=CC(C)C1OC(=O)C=CC=CC(C)C(O)CC(O)C=CC(C)C(O)C(C)CCCCC(O)C1C [Compound 79, (8S,10S,14R,20R)-Tetrahydroxy-(7R,13S,15S,21S)-tetramethyl-(22S)-((1S)-methylpenta-2,4-dienyl)-oxacyclodocosa-3,5,11-trien-2-one] | 0.41 ± 0.52 | essentially equipotent to 1 | 1146 | 470 ± 70 | 14 | 5.6 ± 4.7 | – | 91 ± 6 | 14 ± 7 | – | – | –
C=C/C=C\[C@H](C)[C@@H]1OC(=O)/C=C\C=C\[C@@H](C)[C@@H](O)C[C@H](O)/C=C\[C@H](C)[C@H](O)[C@@H](C)C[C@@H](C)CC[C@@H](O)[C@@H]1C [dictyostatin-1, (8S,10S,14R,20R)-Tetrahydroxy-(7R,13S,15S,17S,21S)-pentamethyl-(22S)-((1S)-methylpenta-2,4-dienyl)oxacyclodocosa-3,5,11-trien-2-one, reference compound] | 0.69 ± 0.8 | – | 4.6 | 3.2 ± 2.4 | 1.9 | 1.3 ± 1 | – | 99 ± 4 | 3.1 ± 0.2 | – | – | –
C=C/C=C\[C@H](C)[C@H](OC(N)=O)[C@@H](C)[C@H](O)[C@@H](C)C/C(C)=C\[C@H](C)[C@@H](O)[C@@H](C)/C=C\[C@@H](O)C[C@@H]1OC(=O)[C@H](C)[C@@H](O)[C@H]1C [discodermolide, reference compound] | 1.7 ± 1.2 | – | 3.6 | 6.2 ± 3.6 | 4.1 | 7 ± 8.4 | – | 98 ± 5 | 3.6 ± 0.4 | – | – | –
